Results as given in ChEMBL document CHEMBL1201862, “PubChem BioAssay data set” (2004).
Activity calls are given as the source filed them.

Tests used:
fMet-Leu-Phe receptor = fMet-Leu-Phe receptor (Homo sapiens, UniProt P21462); assay: FPR ligands, dose response (AID 519); assay type: functional
[1] = ADAM10 inhibitors, peptide cleavage, dose response, biochemical, QFRET (AID 743254);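 note: ADAM10 enzyme with the DM2 quenched FRET peptide as substrate; EDANS fluorescence gain as the protease cuts the substrate; inhibitor potency against ADAM10 proteolytic activity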
[2] = biological target: Disintegrin and metalloproteinase domain-containing protein 17 (Homo sapiens, UniProt P78536); assay: ADAM17 protease inhibitors, dose response, counter-screen for ADAM10 exosite inhibitor project, biochemical, quenched FRET substrate (AID 743253)
Disintegrin and metalloproteinase domain-containing protein 17, sequence (P78536 whole entry, the tested form may be a part): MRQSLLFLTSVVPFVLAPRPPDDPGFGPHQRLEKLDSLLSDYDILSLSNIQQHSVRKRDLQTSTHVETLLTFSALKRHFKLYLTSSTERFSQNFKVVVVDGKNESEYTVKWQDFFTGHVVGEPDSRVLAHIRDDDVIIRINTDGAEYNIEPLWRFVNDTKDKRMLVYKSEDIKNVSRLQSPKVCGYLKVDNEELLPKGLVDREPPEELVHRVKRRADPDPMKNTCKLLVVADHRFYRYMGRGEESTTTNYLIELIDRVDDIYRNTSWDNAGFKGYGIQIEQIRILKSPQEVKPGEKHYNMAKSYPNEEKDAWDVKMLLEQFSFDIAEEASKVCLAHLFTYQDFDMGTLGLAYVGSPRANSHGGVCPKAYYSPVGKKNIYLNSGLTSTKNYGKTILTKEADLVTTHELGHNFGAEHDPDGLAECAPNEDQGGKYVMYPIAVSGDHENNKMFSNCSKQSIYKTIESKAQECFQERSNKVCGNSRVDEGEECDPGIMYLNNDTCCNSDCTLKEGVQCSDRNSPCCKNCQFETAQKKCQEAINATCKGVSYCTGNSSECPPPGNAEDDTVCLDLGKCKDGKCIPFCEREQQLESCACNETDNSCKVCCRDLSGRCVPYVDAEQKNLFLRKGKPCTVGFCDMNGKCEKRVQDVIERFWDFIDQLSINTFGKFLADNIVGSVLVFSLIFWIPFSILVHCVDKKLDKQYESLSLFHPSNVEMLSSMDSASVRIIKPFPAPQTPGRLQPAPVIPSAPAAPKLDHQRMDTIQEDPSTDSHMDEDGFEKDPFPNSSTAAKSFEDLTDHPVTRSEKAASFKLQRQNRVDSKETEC

[3] = biological target: NAD-dependent protein deacylase sirtuin-5, mitochondrial (Homo sapiens, UniProt Q9NXA8); assay: SIRT5 desuccinylase inhibitors, dose response, biochemical, fluorescence imaging, cherry-pick, set 5 (AID 720591);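 note: desuccinylation of succinyl peptide AMC substrate read as fluorescence after trypsin release; potency of inhibitors that lower fluorescence and may act on trypsin instead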
NAD-dependent protein deacylase sirtuin-5, mitochondrial, sequence (Q9NXA8 whole entry): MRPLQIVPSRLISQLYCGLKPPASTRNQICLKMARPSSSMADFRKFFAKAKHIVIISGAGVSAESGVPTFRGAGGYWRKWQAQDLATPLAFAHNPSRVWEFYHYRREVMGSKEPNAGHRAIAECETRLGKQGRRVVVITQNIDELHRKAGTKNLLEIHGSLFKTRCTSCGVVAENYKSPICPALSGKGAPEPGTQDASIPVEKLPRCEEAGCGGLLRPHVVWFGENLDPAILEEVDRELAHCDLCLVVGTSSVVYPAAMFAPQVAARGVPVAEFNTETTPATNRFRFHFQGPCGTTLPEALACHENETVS

Escherichia coli [4] = assay: microbe, parasite or virus in culture
Escherichia coli [5] = assay: microbe, parasite or virus in culture; remark: listed apart in the source
[6] = biological target: T1, Corticotropin-releasing factor receptor 2/Corticotropin-releasing factor-binding protein (Homo sapiens, UniProt P24387+Q13324); assay: activators of CRF receptor 2 with binding protein – uHTS hits, confirmation (AID 602473); assay type: functional; details: read-out: EC50_Mean
T1 sequence (Q13324 whole entry): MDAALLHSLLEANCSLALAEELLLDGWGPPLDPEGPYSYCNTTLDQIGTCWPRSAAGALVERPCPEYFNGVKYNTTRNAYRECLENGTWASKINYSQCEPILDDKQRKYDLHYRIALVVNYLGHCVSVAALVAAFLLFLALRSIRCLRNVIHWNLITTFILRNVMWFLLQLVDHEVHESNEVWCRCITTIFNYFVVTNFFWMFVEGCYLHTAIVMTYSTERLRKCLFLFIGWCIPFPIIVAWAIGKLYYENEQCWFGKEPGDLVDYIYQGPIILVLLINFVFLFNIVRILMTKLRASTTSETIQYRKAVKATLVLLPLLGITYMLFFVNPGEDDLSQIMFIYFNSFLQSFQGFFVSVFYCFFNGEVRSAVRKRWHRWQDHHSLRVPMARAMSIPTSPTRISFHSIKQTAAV
T1 sequence (P24387 whole entry): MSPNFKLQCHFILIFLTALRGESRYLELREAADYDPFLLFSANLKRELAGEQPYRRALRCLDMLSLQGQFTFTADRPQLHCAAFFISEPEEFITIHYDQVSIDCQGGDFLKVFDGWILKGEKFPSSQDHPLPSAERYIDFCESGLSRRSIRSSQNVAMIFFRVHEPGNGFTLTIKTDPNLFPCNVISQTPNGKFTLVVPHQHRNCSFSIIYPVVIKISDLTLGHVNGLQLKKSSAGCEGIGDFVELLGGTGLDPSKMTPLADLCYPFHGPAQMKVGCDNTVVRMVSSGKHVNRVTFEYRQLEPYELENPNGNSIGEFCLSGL

[7] = biological target: T2, Scavenger receptor class B member 1 (Mus musculus, UniProt Q61009); assay: inhibitors of SR-BI dependent HDL uptake, dose response, ldlA[mSR-BI] CHO cells, fluorescence plate reader, dry powder, set 9 (AID 623880); assay type: functional, cell-based
T2 sequence (Q61009 whole entry): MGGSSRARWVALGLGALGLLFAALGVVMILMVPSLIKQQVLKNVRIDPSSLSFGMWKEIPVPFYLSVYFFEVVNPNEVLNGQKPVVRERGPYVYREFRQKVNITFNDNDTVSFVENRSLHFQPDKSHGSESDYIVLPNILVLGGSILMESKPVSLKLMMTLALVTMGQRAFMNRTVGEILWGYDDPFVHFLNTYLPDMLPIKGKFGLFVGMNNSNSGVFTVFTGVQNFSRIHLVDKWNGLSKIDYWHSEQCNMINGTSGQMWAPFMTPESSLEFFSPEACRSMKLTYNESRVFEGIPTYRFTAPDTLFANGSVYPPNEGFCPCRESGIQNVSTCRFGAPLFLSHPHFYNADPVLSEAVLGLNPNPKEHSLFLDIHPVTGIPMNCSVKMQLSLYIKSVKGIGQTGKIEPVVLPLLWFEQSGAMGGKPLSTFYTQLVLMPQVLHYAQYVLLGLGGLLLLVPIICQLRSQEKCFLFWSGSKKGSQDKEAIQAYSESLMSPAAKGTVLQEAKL

[8] = biological target: T2, Scavenger receptor class B member 1; assay: inhibitors of SR-BI-mediated HDL uptake, dose response, cell-based, ldlA[mSR-BI] CHO, DiI fluorescence, dry powder, set 10 (AID 624029); assay type: functional
Cytochrome P450 3A4 = Cytochrome P450 3A4 (Homo sapiens, UniProt P08684);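 note: CYP3A4 tested as one member of a cytochrome P450 panel screen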
Cytochrome P450 3A4, sequence (P08684 whole entry): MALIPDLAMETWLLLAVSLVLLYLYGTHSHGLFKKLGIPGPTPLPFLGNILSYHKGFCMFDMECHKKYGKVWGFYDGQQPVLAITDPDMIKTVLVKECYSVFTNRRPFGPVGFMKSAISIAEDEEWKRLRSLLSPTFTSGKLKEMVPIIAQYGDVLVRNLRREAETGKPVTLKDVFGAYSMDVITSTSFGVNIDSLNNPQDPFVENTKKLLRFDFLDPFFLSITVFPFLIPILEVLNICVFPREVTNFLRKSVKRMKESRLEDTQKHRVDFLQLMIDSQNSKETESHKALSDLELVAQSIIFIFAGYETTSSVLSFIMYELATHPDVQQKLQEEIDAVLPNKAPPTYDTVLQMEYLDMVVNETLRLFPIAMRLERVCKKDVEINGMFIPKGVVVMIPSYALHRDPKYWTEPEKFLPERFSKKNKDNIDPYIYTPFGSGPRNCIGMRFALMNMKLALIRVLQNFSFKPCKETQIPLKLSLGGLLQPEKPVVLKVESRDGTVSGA

Cytochrome P450 2C9 = Cytochrome P450 2C9 (Homo sapiens, UniProt P11712)
Cytochrome P450 2C9, sequence (P11712 whole entry): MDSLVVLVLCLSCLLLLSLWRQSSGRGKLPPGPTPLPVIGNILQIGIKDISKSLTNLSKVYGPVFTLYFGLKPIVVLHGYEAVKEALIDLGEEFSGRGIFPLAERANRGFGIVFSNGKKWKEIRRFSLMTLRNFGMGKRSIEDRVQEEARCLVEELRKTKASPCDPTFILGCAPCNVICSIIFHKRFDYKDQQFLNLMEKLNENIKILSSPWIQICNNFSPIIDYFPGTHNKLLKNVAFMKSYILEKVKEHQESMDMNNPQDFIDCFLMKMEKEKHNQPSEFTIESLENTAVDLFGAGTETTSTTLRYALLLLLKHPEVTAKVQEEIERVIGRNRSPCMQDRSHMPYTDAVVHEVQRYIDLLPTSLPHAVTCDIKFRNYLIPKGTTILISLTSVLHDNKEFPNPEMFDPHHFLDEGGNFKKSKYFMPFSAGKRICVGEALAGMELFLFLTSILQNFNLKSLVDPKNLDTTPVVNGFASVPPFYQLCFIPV

cells [9] = assay type: functional, cell-based
[10] = biological target: T3, Trace amine-associated receptor 1 (Homo sapiens, UniProt Q96RJ0); assay: Fluorescence-based cell-based high throughput dose response assay to identify agonists of the human trace amine associated receptor 1 (TAAR1).; assay type: functional
T3 sequence (Q96RJ0 whole entry): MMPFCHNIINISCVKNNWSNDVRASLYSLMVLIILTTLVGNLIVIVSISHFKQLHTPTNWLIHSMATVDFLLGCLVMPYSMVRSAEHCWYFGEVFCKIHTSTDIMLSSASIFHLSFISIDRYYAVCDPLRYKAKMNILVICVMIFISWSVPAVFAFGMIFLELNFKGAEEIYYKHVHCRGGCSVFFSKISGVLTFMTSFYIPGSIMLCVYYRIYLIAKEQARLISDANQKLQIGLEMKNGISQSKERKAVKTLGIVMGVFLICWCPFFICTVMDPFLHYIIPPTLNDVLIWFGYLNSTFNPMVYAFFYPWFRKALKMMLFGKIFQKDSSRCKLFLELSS

[11] = biological target: T3, Trace amine-associated receptor 1; assay: Counterscreen for agonists of the human trace amine associated receptor 1 (hTAAR1): Fluorescence-based cell-based high throughput dose response assay to identify hTAAR1 agonist that also desensitize TAAR1 receptor response.; assay type: functional
cells [12] = assay type: functional, cell-based; remark: listed apart in the source
[13] = Luminescence Cell-Based Dose Retest to Confirm Inhibitors of Cancer Stem Cells. [Related pubchem assays (depositor defined):AID2717, AID2721]; assay type: functional; details: Homo sapiens
[14] = Fluorescence-based cell-based high throughput dose response assay for inhibitors of the interaction of nucleotide-binding oligomerization domain containing 2 (NOD2) and the receptor-interacting serine-threonine kinase 2 (RIPK2).; assay type: functional; details: Homo sapiens
Paired box protein Pax-8 = Paired box protein Pax-8 (Homo sapiens, UniProt Q06710); assay: inhibitors of PAX8-driven TPO luciferase reporter, dose response, RMG-I cells, cherry-pick (AID 687027); assay type: functional, cell-based;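 note: luciferase reporter driven by Pax8 target thyroperoxidase promoter measured by SteadyGlo luminescence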
Paired box protein Pax-8, sequence (Q06710 whole entry): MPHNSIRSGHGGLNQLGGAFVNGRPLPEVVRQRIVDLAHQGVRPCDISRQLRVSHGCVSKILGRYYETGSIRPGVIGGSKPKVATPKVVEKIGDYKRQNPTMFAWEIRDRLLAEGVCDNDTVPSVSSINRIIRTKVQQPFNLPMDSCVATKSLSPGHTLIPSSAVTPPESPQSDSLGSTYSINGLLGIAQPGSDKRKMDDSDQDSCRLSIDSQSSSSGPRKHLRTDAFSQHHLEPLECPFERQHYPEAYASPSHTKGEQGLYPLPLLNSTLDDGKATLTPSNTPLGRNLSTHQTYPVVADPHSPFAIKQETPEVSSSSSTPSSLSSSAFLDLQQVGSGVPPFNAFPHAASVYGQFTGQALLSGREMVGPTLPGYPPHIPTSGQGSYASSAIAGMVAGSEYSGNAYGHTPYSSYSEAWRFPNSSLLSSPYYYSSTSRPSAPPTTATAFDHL

[15] = inhibitors of PGC1a acetylation in cells, dose response, cell-based, cherry-picked samples (AID 720514); assay type: functional;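 note: potency may reflect raised or lowered acetylation signal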
[16] = A549 cell cytotoxicity, dose response, cytotoxicity control, plate reader, cherry-pick, antagonist series (AID 743412); assay type: functional, cell-based
[17] = HepG2 cell cytotoxicity, dose response, cytotoxicity control, plate reader, cherry-pick, antagonist series (AID 743416); assay type: functional, cell-based
[18] = LGR2 antagonists, dose response, cell-based, HEK293, CRE-luciferase reporter, cherry pick, set 2 (AID 743343); assay type: functional;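 note: transfected cells were stimulated with diluted bursicon conditioned medium after compound addition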
[19] = MC4R antagonists, dose response, counter-screen for LGR2 antagonist project, cell-based, plate reader, cherry pick (AID 743444); assay type: functional;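 note: transfected HEK 293 cells stimulated with alpha-MSH peptide; potency of inhibitors of the alpha-MSH evoked signal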
[20] = HEK293 cell cytotoxicity, dose response, cytotoxicity control, plate reader, cherry-picked samples (AID 743446); assay type: functional, cell-based
[21] = biological target: Fructose-bisphosphate aldolase (Mycobacterium tuberculosis, UniProt P9WQA3); assay: Fluorescence-based biochemical high throughput dose response assay for inhibitors of the fructose-bisphosphate aldolase (FBA) of M. tuberculosis.; assay type: functional
Fructose-bisphosphate aldolase, sequence (P9WQA3 whole entry): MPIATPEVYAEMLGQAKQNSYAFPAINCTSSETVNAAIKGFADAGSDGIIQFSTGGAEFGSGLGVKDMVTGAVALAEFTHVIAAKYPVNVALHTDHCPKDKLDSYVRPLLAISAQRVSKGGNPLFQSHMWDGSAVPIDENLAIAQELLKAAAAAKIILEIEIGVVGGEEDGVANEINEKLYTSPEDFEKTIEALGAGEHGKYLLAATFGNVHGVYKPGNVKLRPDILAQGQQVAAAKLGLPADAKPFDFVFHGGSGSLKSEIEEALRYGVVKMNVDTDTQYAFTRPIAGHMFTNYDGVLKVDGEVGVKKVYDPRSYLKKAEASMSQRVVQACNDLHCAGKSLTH

fMet-Leu-Phe receptor, sequence (P21462 whole entry): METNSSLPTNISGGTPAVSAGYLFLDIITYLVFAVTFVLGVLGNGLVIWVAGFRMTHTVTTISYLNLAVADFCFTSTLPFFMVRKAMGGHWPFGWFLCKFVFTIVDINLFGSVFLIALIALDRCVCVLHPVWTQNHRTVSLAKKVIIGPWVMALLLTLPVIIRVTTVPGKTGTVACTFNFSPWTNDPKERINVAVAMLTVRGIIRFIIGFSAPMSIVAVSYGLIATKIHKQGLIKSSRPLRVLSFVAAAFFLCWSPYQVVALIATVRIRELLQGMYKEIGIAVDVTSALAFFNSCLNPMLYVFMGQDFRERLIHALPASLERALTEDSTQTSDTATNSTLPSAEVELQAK

In the case of `CCOc1ccc(C2C(C(=O)c3ccco3)=C(O)C(=O)N2CCCn2ccnc2)cc1` (centres undefined), the Ki (fMet-Leu-Phe receptor) is reported as 9.9 µM (active).
In the case of `O=C(C1CCC(Cn2c(=S)[nH]c3ccccc3c2=O)CC1)N1CCN(c2ccccc2)CC1` (centres undefined), the IC50 [1] is reported as > 69.5 µM (inactive) and the IC50 [2] is reported as > 69.5 µM (inactive).
In the case of `Nc1ccccc1SCc1cn2ccccc2n1`, the AC50 [3] is reported as 20.6 µM (active), the AC50 (Escherichia coli [4]) is reported as 19.9 µM (active) and the AC50 (Escherichia coli [5]) is reported as 7.26 µM (active).
In the case of `O=C1C2C3C=CC(C3)C2C(=O)N1c1cccc(N2C(=O)C3C4C=CC(C4)C3C2=O)n1` (centres undefined), the EC50 [6] is reported as > 53 µM (inactive), the AC50 [7] is reported as 45.2 µM (active) and the AC50 [8] is reported as > 70 µM (inactive).
In the case of `CCOc1cccc(C(=O)C2=C(O)C(=O)N(Cc3ccco3)C2c2ccncc2)c1` (centres undefined), the Ki (fMet-Leu-Phe receptor) is reported as > 66.7 µM (inactive), the AC50 (Cytochrome P450 3A4) is reported as 22.4 µM (inconclusive) and the AC50 (Cytochrome P450 2C9) is reported as 14.1 µM (inconclusive).
In the case of `COc1ccccc1N1CCN(C(C)C(=O)N2CC(C)OC(C)C2)CC1` (centres undefined), the AC50 [3] is reported as > 30 µM (inactive).
In the case of `Cc1cccc(CCNCc2cc3ccc(C)cc3nc2O)c1`, the IC50 (cells [9]) is reported as > 29.9 µM (inactive), the EC50 [10] is reported as 3.44 µM (active) and the IC50 [11] is reported as 7.79 µM (active). For the same molecule, the EC50 (cells [12]) was 24.9 µM (inactive).
With `O=C(Cn1ncc(Cl)c(Cl)c1=O)NC(=O)NC1CCCCC1` the AC50 [13] was 1.81 µM (active), the IC50 [14] was 3.13 µM (active) and the AC50 (Paired box protein Pax-8) was 2.85 µM (active). The AC50 [15] was 4.83 µM (active), the AC50 [16] was 7.17 µM (active) and the AC50 [17] was 7.9 µM (active). For the same molecule, the AC50 [18] was 25.8 µM (active), the AC50 [19] was 26.2 µM (active) and the AC50 [20] was 7.89 µM (active).
In the case of `O=C(c1ccccc1)c1ccc(OCC(O)CN2CCOCC2)cc1` (centres undefined), the IC50 [21] is reported as > 9.99 µM (inactive).
In the case of `COc1ccc(NC(=O)Cn2nnc(-c3ccccc3)c2COc2ccc3ccccc3c2)cn1`, the IC50 [1] is reported as > 7.72 µM (active) and the IC50 [2] is reported as > 69.5 µM (inactive).
